This note sets out measurements from patent publication US20030148264A1, “Phage displayed PDZ domain ligands” (GENENTECH, INC., priority 2001, published 2003).

Like-named read-outs stand apart in the source and are kept apart here. Where a SMILES comes first, the peptide text is derived from it. Where no end group is shown, it is not given here.

One test deals with Magi1 PDZ3. As to the kind of experiment: IC50 (nM) | Magi1 PDZ3 | 0.625 nM | B01-87 | Bio-GGWFLDV (SEQ ID NO 686) | 15.62 nM. On the procedure: (§1) Table printed on a drawing sheet, Fig. 12
Head of the field: IC50 (nM) | Magi1 PDZ3 | 0.625 nM | B01-87 | Bio-GGWFLDV (SEQ ID NO 686) | 15.62 nM
(§2) The patent's description of the figure: FIG. 12. IC50 values indicating binding affinities of various peptides to PDZ domains
(§3) First copying reader's note: The first column (three lines per block: protein, accession, PDZ domain) is treated as one cell spanning its block; an empty ruled row above the IC50/SD head is left out; #### cells are spreadsheet overflow marks as printed; several heads and cells are cut off at the left by the print (ample, eptide No, EQ ID NO).
Where the first naming reader finds the target: head: IC50 (nM) | Magi1 PDZ3 | 0.625 nM | B01-87

A further test concerns the target T1, Erbin PDZ (Homo sapiens, UniProt Q96RT1).
T1 construct: made in house; host or cells: E. coli
As to the kind of experiment: IC50 (nM) | Erbin PDZ | 2 nM | PDZ501 | Bio-Ac-GGWETWV (SEQ ID NO 687) | 37 nM. The method, then:
as §1, §2, §3
Where the first naming reader finds the target: head: IC50 (nM) | Erbin PDZ | 2 nM | PDZ501

The target in test [1] is GST-MAGI-3 PDZ 2 (aa. 584-707 of SEQ ID NO:200) (human) [GST: P08515]. Description: competition ELISA: peptide blocks GST-PDZ binding to immobilized peptide.
A further test has as its target T2, hZO1 PDZ1 (Homo sapiens, UniProt Q07157).
T2 construct: Human ZO1 (NM_003257) PDZ1; GST; made in house
Description: IC50 (nM) | hZO1 PDZ1 | 5 nM | B01-88 | Bio-GGWRWTTWL (SEQ ID NO 684) | 36 nM. On the procedure: as §1
Head of the field: IC50 (nM) | hZO1 PDZ1 | 5 nM | B01-88 | Bio-GGWRWTTWL (SEQ ID NO 684) | 36 nM
as §2, §3
Where the first naming reader finds the target: head: IC50 (nM) | hZO1 PDZ1 | 5 nM | B01-88

For another test, the target named is T3, MAGI 3 PDZ2 (Homo sapiens, UniProt Q5TCQ9).
T3 sequence (Q5TCQ9 584-707 isoform Q5TCQ9-2): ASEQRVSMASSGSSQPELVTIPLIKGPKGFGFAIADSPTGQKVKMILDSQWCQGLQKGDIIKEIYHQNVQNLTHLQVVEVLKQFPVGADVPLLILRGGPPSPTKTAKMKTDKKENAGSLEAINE
As to the kind of experiment: Competition ELISA, peptide blocking PDZ domain binding to immobilized peptide. Also noted: made in house; host or cells: E. coli. An excerpt: Many methods are known and can be used to identify the binding affinities of PDZ domain binding ligands (e.g. peptides, proteins, small mollecules, etc.); for example, binding affinities can be determined as IC50 values using competition ELISAs. The IC50 value is defined as the concentration of ligand which blocks 50% of PDZ domain binding to a ligand. For example, in solid phase assays, assay plates may be prepared by coating microwell plates (preferably treated to efficiently absorb protein) with neutravidin, avidin or streptavidin. Non-specific binding sites are then blocked through addition of a solution of bovine serum albumin (BSA) or other proteins (for example, nonfat milk) and then washed, preferably with a buffer containing a detergent, such as Tween-20. A biotinylated known PDZ-domain ligand (for example, the phage peptides or cognate protein as fusions with GST or other such molecule to facilitate purification and detection) is prepared and bound to the plate. Serial delutions of the ligand to be tested with a PDZ domain polypeptide arc prepared and contacted with the bound ligand. The plate coated with the immobilized ligandis washed before adding each binding reaction to the wells and briefly incubated. After further washing, the binding reactions are detected, often with an antibody recognizing the non-PDZ fusion partner and a labeled (such as horseradish peroxidase (HRP), alkaline phosphatase (AP), or a fluorescent tag such as fluorescein) secondary antibody recognizing the primary antibody. The plates are then developed with the appropriate substrate (depending on the label) and the signal quantified, such as using a spectrophotometric plate reader. The absorption signal may be fit to a binding curve using a least squares fit. Thus the ability of the various ligands to inhibit PDZ domain from binding a known PDZ-domain ligand can be measured.
Prokaryotic: The ERBIN PDZ domain (aa. 1217-1371 of SEQ ID NO:201) or MAGI-3 PDZ 2 (aa. 584-707 of SEQ ID NO:200) were cloned into the EcoR 1/Not 1 or BamH 1/Not 1 sites of pGEX 6P-1 and pGEX 4T-3 E. coli expression vectors (Pharmacia) respectively. Expression and affinity purification of E coli expressed GST-proteins was performed as recommended by the manufacturer (Pharmacia).
Peptides corresponding to the selected sequences were synthesized and assayed for binding (Table 2). […] The data also confirmed that the minimal tetrapeptide selectants from the PDZ2 sort bind PDZ2 with high affinity. […] It appears that this large difference in binding affinity is attributable to the residue at P(−1), which is a Trp in the selected peptide as opposed to a Lys in PTEN/MMAC (compare HTQITWV with HTQITKV (SEQ ID NO:220), Table 2; The IC50 values are the concentrations of peptide that blocked 50% of PDZ domain binding to immobilized peptide in an ELISA).

Test [2] deals with ERBIN PDZ-GST fusion protein (aa. 1217-1371 of SEQ ID NO:201) (human) [GST: P08515]. As to the kind of experiment: competition ELISA: ERBIN PDZ-GST binding to immobilized biotin-WETWV.
Test [3] addresses ERBIN PDZ-GST fusion protein (aa. 1217-1371 of SEQ ID NO:201) (human, UniProt P08515 1-218 = GST). The test is described as above.
Where [4] appears, read: MAGI 3 PDZ2, concentration of peptide that blocked 50% of PDZ domain binding to immobilized peptide in an ELISA, read-out: IC50 (μM) PDZ2.

Chain of ERBIN PDZ-GST fusion protein (aa. 1217-1371 of SEQ ID NO:201) (P08515 whole entry, the tested form may be a part): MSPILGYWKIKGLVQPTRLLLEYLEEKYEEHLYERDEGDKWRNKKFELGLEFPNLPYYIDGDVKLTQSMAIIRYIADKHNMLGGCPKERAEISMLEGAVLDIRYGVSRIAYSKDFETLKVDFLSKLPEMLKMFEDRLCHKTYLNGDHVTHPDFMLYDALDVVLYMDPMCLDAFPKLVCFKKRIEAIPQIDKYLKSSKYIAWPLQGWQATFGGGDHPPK
Chain of ERBIN PDZ-GST fusion protein (aa. 1217-1371 of SEQ ID NO:201) (human) [GST: P08515] (P08515 whole entry, the tested form may be a part): as above
Chain of GST-MAGI-3 PDZ 2 (aa. 584-707 of SEQ ID NO:200) (human) [GST: P08515] (P08515 whole entry): as the sequence (P08515 whole entry, the tested form may be a part) above
T1 sequence (Q96RT1 1258-1412): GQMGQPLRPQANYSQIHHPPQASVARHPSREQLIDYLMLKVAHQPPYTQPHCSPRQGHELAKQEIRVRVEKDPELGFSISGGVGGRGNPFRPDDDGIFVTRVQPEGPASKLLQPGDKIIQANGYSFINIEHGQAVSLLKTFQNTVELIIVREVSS
T2 sequence (Q07157 23-110): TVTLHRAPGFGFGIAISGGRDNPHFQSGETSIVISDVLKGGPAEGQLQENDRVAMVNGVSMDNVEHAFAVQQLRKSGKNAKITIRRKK

“Ac-WFLWI [34 | 01-12, SEQ ID NO 673 NAC-WFLWI]”: the IC50 was 34700 nM in the test on Magi1 PDZ3 and above 400000 nM against Erbin PDZ.
As to HTQITWV (peptide), the IC50 in test [1] was 0.3 µM.
For the molecule “Ac-KTSTSYV [14 | 01-97, SEQ ID NO 653 N^AC-KTSTSYV]”, on hZO1 PDZ1, the IC50 turned out to be 2030 nM.
GCGCSWV: on MAGI 3 PDZ2 (setting [4]), the IC50 stood at 2 µM.
Turning to “Ac-YSLTGYV [15 | 01-94, SEQ ID NO 654 N^AC-YSLTGYV]”, half-maximal inhibition on hZO1 PDZ1 (IC50) was put at 12400 nM.
With “Ac-KETWL [20 | 01-05, SEQ ID NO 659 N^AC-KETWL]”, the half-maximal inhibitory concentration (IC50) was 19800 nM on Erbin PDZ and 12600 nM against hZO1 PDZ1.
For the molecule “Ac-YRLNDYV [18 | 01-98, SEQ ID NO 657 N^AC-YRLNDYV]”, at hZO1 PDZ1, the IC50 is 28600 nM.
On hZO1 PDZ1, “Ac-KSTWL [23 | 01-03, SEQ ID NO 662 N^AC-KSTWL]” returned a 50% inhibitory concentration (IC50) of 5310 nM.
For GCGCSWV (peptide), in test [1], the half-maximal inhibitory concentration (IC50) was determined as 2 µM.
On to H1N -TWV (peptide), for which, in test [2], the half-maximal inhibitory concentration (IC50) worked out at 105 µM and the fold less potent than H1N -GWETWV worked out at 73.6 fold.
Take “Ac-YSRSQYV [16 | 01-95, SEQ ID NO 655 N^AC-YSRSQYV]”: inhibition against hZO1 PDZ1 was half-maximal at 4620 nM (IC50).
For HTQITWV [HTQITWV], the concentration for half-maximal inhibition (IC50) at MAGI 3 PDZ2 (setting [4]) worked out at 0.3 µM.
For “Ac-WGWTTWL [12 | 01-30, EQ ID NO 651 N^AC-WGWTTWL]”, the IC50 at Erbin PDZ is 35500 nM; against hZO1 PDZ1, 47 ± 4 nM.
As for HTQITKV (peptide), the IC50 in test [1] turned out to be 200 µM.
Turning to “Ac-WELLI [38 | 01-21, SEQ ID NO 677 NAC-WELLI]”, at hZO1 PDZ1, the 50% inhibitory concentration (IC50) stood at 20100 nM.
On the same count and under the same terms, with “Ac-KITWL [25 | 01-06, SEQ ID NO 664 N^AC-KITWL]” the figure was 2320 nM.
For the molecule “EQ ID NO 649 N^AC-YRWTTWL (Ac-YRWTTWL) [10 | 01-28]”, 32600 nM corresponded to half-maximal inhibition in the test with Magi1 PDZ3 (IC50).
On to `CC[C@H](C)[C@H](N)C(=O)N[C@H](C(=O)N[C@@H](CCCCN)C(=O)N[C@H](C(=O)O)C(C)C)[C@@H](C)O` [ITKV, reference compound] (H-ITKV-OH; N-terminus and C-terminus assumed), for which the IC50 on MAGI 3 PDZ2 (MAGI 3 PDZ2 domain, read-out: IC50) was found to be 200 µM.
On to Ac-WV (peptide), for which, in test [2], the IC50 is 77.8 µM and the fold less potent than Ac-GWETWV is 78.7 fold.
Turning to “Ac-WRWTTWV [13 | 01-31, EQ ID NO 652 N^AC-WRWTTWV]”, the IC50 was 32600 nM in the test on Magi1 PDZ3 and 789 ± 62 nM on Erbin PDZ.
On the same counts, the results for “AWFDTDL [2 | 01-61, SEQ ID NO 641 AWFDTDL]” are 18200 nM and 25400 nM.
SEQ ID NO 671 NAC-WFLDI [32 | 01-14]: in the test with Magi1 PDZ3, the IC50 worked out at 408 ± 50 nM.
In test [2], Ac-WETNapV (peptide) had an IC50 of 0.6 µM and a fold less potent than Ac-WETWV of 1.1 fold.
Turning to “Ac-WRHTTWL [11 | 01-29, EQ ID NO 650 N^AC-WRHTTWL]”, the IC50 was 52400 nM against Erbin PDZ and 35 ± 5 nM against hZO1 PDZ1.
Consider “EQ ID NO 648 N^AC-WRWTTWL (Ac-WRWTTWL) [9 | 01-103]”, for which half-maximal inhibition with Magi1 PDZ3 (IC50) required 180 ± 59 nM.
Consider “Ac-FETDL [1 | 01-104, SEQ ID NO 640 N^AC-FETDL]”, for which the IC50 is 91500 nM with Magi1 PDZ3 and 101000 nM at Erbin PDZ.
In the case of “Ac-WFLDA [42 | 01-22, SEQ ID NO 681 NAC-WFLDA]”, the IC50 was 410 ± 72 nM in the test on Magi1 PDZ3 and 21800 nM at hZO1 PDZ1.
For the molecule Ac-TWY (peptide), in test [2], the half-maximal inhibitory concentration (IC50) was determined as 77.4 µM and the fold less potent than Ac-GWETWV is 81.5 fold.
“Ac-FETWL [3 | 01-08, SEQ ID NO 642 N^AC-FETWL]”: the 50% inhibitory concentration (IC50) on Erbin PDZ is 3160 nM.
In the case of “Ac-RETWL [22 | 01-02, SEQ ID NO 661 N^AC-RETWL]”, the values for the 50% inhibitory concentration (IC50) on Erbin PDZ and against hZO1 PDZ1 were 39700 nM and 28600 nM, respectively.
Consider “Ac-ERIWFV [29 | 01-24, SEQ ID NO 668 NAC-ERIWFV]”, for which the half-inhibitory concentration (IC50) on hZO1 PDZ1 is 21400 nM.

B1: Ac-WEAWV (peptide)
peptide: Ac-WEAWV
Consider B1, for which, in test [3], the IC50 was determined as 12.4 µM and the “fold less potent than Ac-WETWV” value amounted to 25.3 fold.

B2: Ac-WETWV (peptide)
peptide: Ac-WETWV
On to B2, for which, in test [2], the IC50 turned out to be 0.5 µM, the fold less potent than Ac-GWETWV worked out at 0.5 fold and the fold less potent than Ac-WETWV stood at 1 fold.

B3: Ac-WATWV (peptide)
peptide: Ac-WATWV
As for B3, in test [3], the half-inhibitory concentration (IC50) was found to be 14.8 µM and the “fold less potent than Ac-WETWV” value was determined as 30.3 fold.

B4: H1N -WETWV (peptide)
peptide: H-WETWV-OH
In the case of B4, in test [2], the IC50 is 0.2 µM and the fold less potent than H1N -GWETWV was determined as 0.2 fold.

B5: H1N-GWETWV (peptide)
peptide: H-GWETWV-OH
As for B5, in test [2], the IC50 is 1.4 µM and the fold less potent than H1N -GWETWV turned out to be 1 fold.

B6: Ac-GWETWV (peptide)
peptide: Ac-GWETWV
On to B6, for which, in test [2], the IC50 was 0.9 µM and the fold less potent than Ac-GWETWV came out at 1 fold.

B7: H1N -ETWV (peptide)
peptide: H-ETWV-OH
With B7, in test [2], the IC50 came to 16.5 µM and the fold less potent than H1N -GWETWV was 11.5 fold.

B8: Ac-ETWV (peptide)
peptide: Ac-ETWV
B8: in test [2], the half-inhibitory concentration (IC50) was determined as 4.9 µM and the fold less potent than Ac-GWETWV worked out at 5.1 fold.

B9: Ac-AETWV (peptide)
peptide: Ac-AETWV
On to B9, for which, in test [3], the IC50 was found to be 4 µM and the “fold less potent than Ac-WETWV” value is 8.2 fold.
